{"source": "patent US20060008512A1", "about": "“Composition and methods for improved animal performance” (priority 2004, published 2006)", "key": {"fine-wool Merino wethers": {"tested_on": "fine-wool Merino wethers", "conditions": "60 mg thyroxine implants in summer and autumn; cited from earlier work"}, "[1]": {"tested_on": "66-week-old caged laying hens", "conditions": "cited from earlier work"}, "turkey breeder hens": {"tested_on": "turkey breeder hens", "experiment": "Experiment 7: molting of turkey breeder hens with dietary L-thyroxine, porcine thyroid powder or TIC with or without protease", "assay_type": "in vivo", "conditions": "for Ending (10 d) Body Wt / Liver Weight / Ovary Weight / Oviduct Weight: turkey breeder hens, 6 per treatment", "excerpt": "Experiment 7. Molting of Turkey Breeder Hens with Dietary L-Thyroxine, Porcine Thyroid Powder, or Thyroactive Iodinated Casein With or Without Protease. Turkey breeder hens were molted with various dietary thyroxine treatments at Diamond K Research, […]. (Jun. 20-Jul. 1, 2005)."}, "[2]": {"tested_on": "96-week old broiler breeder cockerels", "conditions": "2 or 5 ppm T4 in diet for 4 weeks; cited from earlier work"}, "laying turkeys": {"tested_on": "laying turkeys", "conditions": "2 mg L-thyroxine/hen/day i.m.; cited from earlier work"}, "White Leghorn hens": {"tested_on": "White Leghorn hens", "conditions": "excessive injected levels, e.g. 243 micrograms/100 g body weight; cited from earlier work"}, "[3]": {"tested_on": "Cobb broiler breeder hens and roosters", "quoted_text": "Molting Cobb Broiler Breeder Hens and Roosters with Dietary Thyroxine."}, "[4]": {"conditions": "daily injections of 150 mcg/kg body weight; cited from earlier work"}, "[5]": {"conditions": "10 mg T4/kg diet fed for 10 days"}, "[6]": {"conditions": "25 mg T4/kg diet fed for 10 days"}, "[7]": {"conditions": "40 mg T4/kg diet fed for 10 days"}}, "note": "Like-named read-outs stand apart in the source and are kept apart here. Marks after values point to notes of the source that are not given here.", "data": [{"smiles": "N[C@@H](Cc1cc(I)c(Oc2cc(I)c(O)c(I)c2)c(I)c1)C(=O)O", "note": "[L-thyroxine, 3,5,3′,5′-tetraiodo-L-thyronine]", "values": [{"measurement": "Increase in annual fleece weight", "setting": "fine-wool Merino wethers", "value": 34, "unit": "%"}, {"measurement": "Days to target body weight (30% loss)", "setting": "[1]; 1-day fast or no fast followed by corn diet with or without thyroxine", "value": 28, "unit": "days"}, {"measurement": "Days to target body weight (30% loss)", "setting": "[1]; 1-day feed withdrawal, then grape pomace diet plus 10 mg thyroxine/kg", "value": 16, "unit": "days"}, {"measurement": "Egg production from 66 to 98 weeks", "setting": "[1]; grape pomace diet plus thyroxine", "value": 64.7, "unit": "%"}, {"measurement": "Ending (10 d) Body Wt", "setting": "turkey breeder hens; [5]", "value": 23.03, "unit": "lb"}, {"measurement": "Liver Weight", "setting": "turkey breeder hens; [5]", "value": "143.0^bc g"}, {"measurement": "Ovary Weight", "setting": "turkey breeder hens; [5]", "value": "159.1^a g"}, {"measurement": "Oviduct Weight", "setting": "turkey breeder hens; [5]", "value": "124.1^a g"}, {"measurement": "Ending (10 d) Body Wt", "setting": "turkey breeder hens; [6]", "value": 25.11, "unit": "lb"}, {"measurement": "Liver Weight", "setting": "turkey breeder hens; [6]", "value": "144.6^b g"}, {"measurement": "Ovary Weight", "setting": "turkey breeder hens; [6]", "value": "160.5^a g"}, {"measurement": "Oviduct Weight", "setting": "turkey breeder hens; [6]", "value": "134.7^a g"}, {"measurement": "Ending (10 d) Body Wt", "setting": "turkey breeder hens; [7]", "value": 22.99, "unit": "lb"}, {"measurement": "Liver Weight", "setting": "turkey breeder hens; [7]", "value": "141.9^bc g"}, {"measurement": "Ovary Weight", "setting": "turkey breeder hens; [7]", "value": "129.1^a g"}, {"measurement": "Oviduct Weight", "setting": "turkey breeder hens; [7]", "value": "138.7^a g"}, {"measurement": "Regressing reproductive tracts", "setting": "turkey breeder hens; 10, 20, or 40 mg T4/kg diet, 10 days", "value": "not as effective as porcine thyroid powder"}, {"measurement": "Week at which daily sperm output returned to control values", "setting": "[2]", "value": 11, "unit": "week"}, {"measurement": "Week at which plasma testosterone levels returned to control values", "setting": "[2]", "value": 5, "unit": "week"}, {"measurement": "Time out of egg production after treatment", "setting": "laying turkeys", "value": 4, "unit": "weeks"}, {"measurement": "Mortality", "setting": "White Leghorn hens", "value": 47, "unit": "%"}, {"measurement": "Toxicity to broiler breeder males", "setting": "[3]; 25 mg/kg diet or more", "value": "toxic to broiler breeder males (death)"}, {"measurement": "Testes of broiler breeder males", "setting": "[3]; 25 or 40 mg T4/kg diet", "value": "testes shown to enlarge"}, {"measurement": "Adverse sign in roosters", "setting": "[3]; 25 or 40 mg/kg diet", "value": "“stroke blood” from the nostrils"}, {"measurement": "Time on treated feed until hens reduced feed intake, ceased egg production and began to molt feathers", "setting": "[3]; Cobb broiler breeder hens, 25 or 40 ppm", "value": "15 to 17", "unit": "days"}, {"measurement": "Tolerance of males for thyroxine (T4) alone", "setting": "[3]; excess causes mortality", "value": "< 25", "unit": "mg/kg diet"}, {"measurement": "Decrease in fiber diameter", "setting": "[4]", "value": 7.8, "unit": "%"}, {"measurement": "Increase in mohair length growth rate", "setting": "[4]", "value": 15, "unit": "%"}]}]}
